Reference: ChEMBL document CHEMBL6153059, “Discovery of a Potent Triazole-Based Reversible Targeted Covalent Inhibitor of Cruzipain” (ACS Med Chem Lett, 2025)
Active and inactive are the calls of the source. No cut-off for these calls is given here.

Tests used:
[1] = molecular target: Cruzipain (Trypanosoma cruzi) (UniProt P25779); assay: Inhibition of Trypanosoma cruzi cruzain at 100 uM using Z-FR-AMC as substrate preincubated for 10 mins followed by substrate addition and measured every 5 secs for 10 mins by fluorimetry; conditions: time 20.0 min
Trypanosoma cruzi [2] = assay: Antitrypanosomal activity against Trypanosoma cruzi Tulahuen trypomastigotes expressing Escherichia coli beta-galactosidase infected in African green monkey Vero cells incubated for 72 hrs by ONPG dye based microplate reader analysis; type: functional, organism-based
Cruzipain = Cruzipain (Trypanosoma cruzi, UniProt P25779); assay: Inhibition of Trypanosoma cruzi cruzain using Z-FR-AMC as substrate preincubated for 10 mins followed by substrate addition and measured every 5 secs for 10 mins by fluorimetry
[3] = molecular target: Cruzipain (Trypanosoma cruzi) (UniProt P25779); assay: Inhibition of Trypanosoma cruzi cruzain at 100 uM using Z-FR-AMC as substrate measured every 5 secs for 10 mins by fluorimetry
cathepsin L = cathepsin L (Homo sapiens, UniProt P07711); assay: Inhibition of recombinant human cathepsin L expressed in FreeStyle 293-F cells using Z-FR-AMC as substrate at 100 uM preincubated for 10 mins followed by substrate addition and measured for 20 mins by fluorimetry; conditions: probe Z-FR-AMC, time 30 min
[4] = Dissociation constant, pKa of the compound for carboxyl group by potentiometric titration analysis; type: physicochemical
[5] = Cytotoxicity against African green monkey Vero cells assessed as cell viability at 50 uM incubated for 96 hrs by resazurin dye based fluorescence analysis relative to control; type: toxicity; conditions: chlorocebus sabaeus, read-out: Activity
Trypanosoma cruzi [6] = assay: Antitrypanosomal activity against Trypanosoma cruzi Tulahuen trypomastigotes expressing Escherichia coli beta-galactosidase infected in African green monkey Vero cells at 10 uM incubated for 72 hrs by ONPG dye based microplate reader analysis; type: functional
[7] = molecular target: Cruzipain (Trypanosoma cruzi) (UniProt P25779); assay: Covalent reversible inhibition of Trypanosoma cruzi cruzain using Z-FR-AMC as substrate at 0.1XIC50 and measured at 10 mins post-dilution by jump dilution assay
[8] = molecular target: Cruzipain (Trypanosoma cruzi) (UniProt P25779); assay: Covalent reversible inhibition of Trypanosoma cruzi cruzain assessed as recovery of enzyme activity using Z-FR-AMC as substrate at 0.1XIC50 and measured for 2 hrs by jump dilution assay
Trypanosoma cruzi [9] = assay: Antitrypanosomal activity against Trypanosoma cruzi Tulahuen trypomastigotes expressing Escherichia coli beta-galactosidase infected in African green monkey Vero cells at 50 uM incubated for 72 hrs by ONPG dye based microplate reader analysis; type: functional
[10] = Dissociation constant, pKa of the compound for secondary ammonium by potentiometric titration analysis; type: physicochemical

Cruzipain, sequence (P25779 whole entry): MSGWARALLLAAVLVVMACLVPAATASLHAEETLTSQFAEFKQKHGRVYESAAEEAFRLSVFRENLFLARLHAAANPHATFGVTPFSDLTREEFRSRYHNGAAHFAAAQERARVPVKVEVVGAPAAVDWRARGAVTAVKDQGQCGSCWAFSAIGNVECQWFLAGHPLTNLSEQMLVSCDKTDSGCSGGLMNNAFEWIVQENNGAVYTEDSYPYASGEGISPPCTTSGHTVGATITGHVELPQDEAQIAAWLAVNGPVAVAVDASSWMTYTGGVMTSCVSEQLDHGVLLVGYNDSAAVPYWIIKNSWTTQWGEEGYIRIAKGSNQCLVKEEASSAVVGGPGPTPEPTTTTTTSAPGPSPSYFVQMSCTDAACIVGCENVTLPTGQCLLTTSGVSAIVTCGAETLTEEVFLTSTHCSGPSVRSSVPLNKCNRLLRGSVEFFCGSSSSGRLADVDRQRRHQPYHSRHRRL
Cruzipain (Trypanosoma cruzi), sequence (P25779 123-467 limits assumed): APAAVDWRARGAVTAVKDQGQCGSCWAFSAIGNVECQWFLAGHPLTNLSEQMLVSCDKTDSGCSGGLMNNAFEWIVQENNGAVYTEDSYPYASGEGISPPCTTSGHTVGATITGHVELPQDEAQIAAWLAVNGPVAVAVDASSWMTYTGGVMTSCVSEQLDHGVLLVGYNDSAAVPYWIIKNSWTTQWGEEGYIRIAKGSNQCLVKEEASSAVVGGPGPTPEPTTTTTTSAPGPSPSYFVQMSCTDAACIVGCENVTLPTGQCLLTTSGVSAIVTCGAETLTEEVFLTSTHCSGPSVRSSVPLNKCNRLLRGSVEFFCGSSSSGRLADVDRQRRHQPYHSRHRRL
cathepsin L, sequence (P07711 whole entry): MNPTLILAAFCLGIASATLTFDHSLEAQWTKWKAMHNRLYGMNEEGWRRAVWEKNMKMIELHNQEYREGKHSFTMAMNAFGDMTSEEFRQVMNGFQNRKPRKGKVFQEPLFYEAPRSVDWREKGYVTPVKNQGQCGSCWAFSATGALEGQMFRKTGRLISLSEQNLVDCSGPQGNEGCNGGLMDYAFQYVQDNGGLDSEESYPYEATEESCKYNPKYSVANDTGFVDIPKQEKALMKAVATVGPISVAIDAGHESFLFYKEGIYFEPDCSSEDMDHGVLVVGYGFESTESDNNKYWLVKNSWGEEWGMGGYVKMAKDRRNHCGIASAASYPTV

| Structure (SMILES) | inhibition [1] | IC50 (Cruzipain) | inhibition [3] | inhibition at 20 min, 100 µM (cathepsin L) | also measured |
| --- | --- | --- | --- | --- | --- |
| COc1ccc(COC(=O)[C@H](CS)n2cc(C(NCc3ccc4c(c3)OCO4)C3CCCCC3)nn2)cc1 (stereo partly drawn) | 28% |  |  |  |  |
| NCCCC[C@@H](C=O)n1cc(C(NCc2ccc3c(c2)OCO3)C2CCCCC2)nn1 (stereo partly drawn) |  | 3.3 µM |  |  | IC50 (Trypanosoma cruzi [2]): 3.2 µM |
| COC(=O)[C@H](CS)n1cc(C(NCc2ccc3c(c2)OCO3)C2CCCCC2)nn1 (stereo partly drawn) | 53% |  | 6% |  |  |
| CCOC(=O)[C@H](CS)n1cc(C(NCc2ccc3c(c2)OCO3)C2CCCCC2)nn1 (stereo partly drawn) | 46% |  | 3% |  |  |
| SC[C@@H](Cc1ccccc1)n1cc(C(NCc2ccc3c(c2)OCO3)C2CCCCC2)nn1 (stereo partly drawn) | 79% | 7 µM | 12% | 0% |  |
| CC(C)[C@H](CS)n1cc(C(NCc2ccc3c(c2)OCO3)C2CCCCC2)nn1 (stereo partly drawn) | 43% |  | 6% |  |  |
| O=C(O)[C@H](CSC(c1ccccc1)(c1ccccc1)c1ccccc1)n1cc(C(NCc2ccc3c(c2)OCO3)C2CCCCC2)nn1 (stereo partly drawn) |  | 6 µM |  | 100% | pKa [4]: 3 |
| O=C(O)[C@H](CS)n1cc(C(NCc2ccc3c(c2)OCO3)C2CCCCC2)nn1 (stereo partly drawn) | 100% | 0.028 µM | 13% | 0% | viability at 96 h, 50 µM [5]: 80%; IC50 (Trypanosoma cruzi [2]): 6.67 µM; inhibition at 10 µM (Trypanosoma cruzi [6]): 76%; pKa [4]: 4; inhibition [7]: inactive; inhibition [8]: Active; inhibition at 50 µM (Trypanosoma cruzi [9]): 98%; pKa [10]: 8.1 |
